Test results taken from patent US4933363A, “Method for effecting systemic delivery of delta-9-tetrahydrocannabinol” (priority 1988, dated 1990).

Assays:
[1] = various suppository formulations; cited from earlier work
[2] = 4×4 Latin square comparison of i.v., oral and suppository administration (GC/MS plasma levels); conditions: for Mean delta-9-tetrahydrocannabinol level in plasma: four monkeys; for concentration at 0.1 h / concentration at 0.25 h / concentration at 0.5 h / concentration at 1 h / concentration at 1.5 h / concentration at 2 h / concentration at 3 h / concentration at 4 h / concentration at 6 h / concentration at 8 h / concentration at 24 h: monkey, plasma
[3] = Bioavailability of parent delta-9-tetrahydrocannabinol from a suppository (GC/MS of blood samples); assay type: in vivo, monkey; conditions: 10 mg/suppository
Protocol: The parent drug delta-9-tetrahydrocannabinol was formulated in a suppository form at 10 mg/suppository using Witepsol-H15 as the base. One suppository was administered to a monkey and blood samples collected at the same time intervals as shown under Examples II-V. GC/MS analysis of these samples was carried out for delta-9-tetrahydrocannabinol and its metabolite.

[4] = cited from earlier work
[5] = Suppository of N-methyl glucamine salt vs free hemisuccinate ester (GC/MS blood levels); conditions: equivalent to 10 mg parent drug per suppository, monkeys
[6] = i.v., 0.5 mg/kg parent equivalent, 0.0 hr
[7] = Witepsol-H15, one monkey, GC/MS, all time points

CCCCCc1cc(O)c2c(c1)OC(C)(C)[C@@H]1CCC(C)=C[C@@H]21 [delta-9-tetrahydrocannabinol]
absorption and bioavailability via the rectal route [1]: no absorption, consequently no bioavailability achieved via the rectal route | Mean delta-9-tetrahydrocannabinol level in plasma [2, 6]: 0.0 ng/mL | concentration at 0.1 h ([2]; iv, 0.5 mg/kg): 1680 ng/mL | concentration at 0.25 h ([2]; iv, 0.5 mg/kg): 335 ng/mL | concentration at 0.5 h ([2]; iv, 0.5 mg/kg): 170 ng/mL | concentration at 1 h ([2]; iv, 0.5 mg/kg): 102 ng/mL | concentration at 1.5 h ([2]; iv, 0.5 mg/kg): 67.3 ng/mL | concentration at 2 h ([2]; iv, 0.5 mg/kg): 55.8 ng/mL | concentration at 3 h ([2]; iv, 0.5 mg/kg): 34 ng/mL | concentration at 4 h ([2]; iv, 0.5 mg/kg): 22.8 ng/mL | concentration at 6 h ([2]; iv, 0.5 mg/kg): 29 ng/mL | concentration at 8 h ([2]; iv, 0.5 mg/kg): 17.3 ng/mL | concentration at 24 h ([2]; iv, 0.5 mg/kg): 2.5 ng/mL | concentration at 3 h ([2]; po, 10 mg): 0.5 ng/mL | concentration at 4 h ([2]; po, 10 mg): 1.3 ng/mL | concentration at 6 h ([2]; po, 10 mg): 2.3 ng/mL | concentration at 8 h ([2]; po, 10 mg): 4.3 ng/mL | concentration at 24 h ([2]; po, 10 mg): 0.8 ng/mL | Mean delta-9-tetrahydrocannabinol level in plasma ([2]; oral, 10 mg in sesame oil, 0.0 hr): 0.0 ng/mL | Mean delta-9-tetrahydrocannabinol level in plasma ([2]; oral, 10 mg in sesame oil, 0.1 hr): 0.0 ng/mL | Mean delta-9-tetrahydrocannabinol level in plasma ([2]; oral, 10 mg in sesame oil, 0.25 hr): 0.0 ng/mL | Mean delta-9-tetrahydrocannabinol level in plasma ([2]; oral, 10 mg in sesame oil, 0.5 hr): 0.0 ng/mL | Mean delta-9-tetrahydrocannabinol level in plasma ([2]; oral, 10 mg in sesame oil, 1.0 hr): 0.0 ng/mL | Mean delta-9-tetrahydrocannabinol level in plasma ([2]; oral, 10 mg in sesame oil, 1.5 hr): 0.0 ng/mL | Mean delta-9-tetrahydrocannabinol level in plasma ([2]; oral, 10 mg in sesame oil, 2.0 hr): 0.0 ng/mL | bioavailability from a suppository dosage form ([3]; Witepsol-H15, monkey): lack of bioavailability | delta-9-tetrahydrocannabinol detected in blood samples [3, 7]: Neither delta-9-tetrahydrocannabinol nor its metabolite was detected | metabolite (11-nor-delta-9-tetrahydrocannabinol-9-COOH) detected in blood samples [3, 7]: Neither delta-9-tetrahydrocannabinol nor its metabolite was detected | bioavailability via the oral routes ([4]; oral (e.g. chocolate cookies, sesame oil capsules)): quite low | effect of fasting or food deprivation on absorption from the gastrointestinal tract ([4]; oral, fasting or food deprivation): decreased by fasting or food deprivation | interpatient variability in absorption ([4]; oral, patients): extreme interpatient variability in absorption | oral absorption ([4]; oral): slow and erratic

CCCCCc1cc(OC(=O)CCC(=O)O)c2c(c1)OC(C)(C)[C@@H]1CCC(C)=C[C@@H]21 [Delta-9-tetrahydrocannabinol hemisuccinate ester]
equivalency of intravenous dosage of ester to intravenous dosage of parent ([2]; i.v., 0.5 mg/kg parent drug equivalent, monkeys): equivalency of the intravenous dosage of the hemisuccinate ester of delta-9-tetrahydrocannabinol to the intravenous dosage of the parent delta-9-tetrahydrocannabinol | Mean delta-9-tetrahydrocannabinol level in plasma [2, 6]: 0.0 ng/mL | concentration at 0.25 h [2]: 14.8 ng/mL | concentration at 0.5 h [2]: 33.5 ng/mL | concentration at 1 h [2]: 46 ng/mL | concentration at 1.5 h [2]: 53.5 ng/mL | concentration at 2 h [2]: 53.3 ng/mL | concentration at 3 h [2]: 50 ng/mL | concentration at 4 h [2]: 38 ng/mL | concentration at 6 h [2]: 18.5 ng/mL | concentration at 8 h [2]: 12.8 ng/mL | concentration at 24 h [2]: 1.3 ng/mL | concentration at 0.1 h ([2]; iv, 0.5 mg/kg): 2060 ng/mL | concentration at 0.25 h ([2]; iv, 0.5 mg/kg): 669 ng/mL | concentration at 0.5 h ([2]; iv, 0.5 mg/kg): 251 ng/mL | concentration at 1 h ([2]; iv, 0.5 mg/kg): 95.8 ng/mL | concentration at 1.5 h ([2]; iv, 0.5 mg/kg): 65.3 ng/mL | concentration at 2 h ([2]; iv, 0.5 mg/kg): 42.5 ng/mL | concentration at 3 h ([2]; iv, 0.5 mg/kg): 26.3 ng/mL | concentration at 4 h ([2]; iv, 0.5 mg/kg): 18.5 ng/mL | concentration at 6 h ([2]; iv, 0.5 mg/kg): 13 ng/mL | concentration at 8 h ([2]; iv, 0.5 mg/kg): 8 ng/mL | concentration at 24 h ([2]; iv, 0.5 mg/kg): 2.5 ng/mL | delivery of delta-9-tetrahydrocannabinol to the blood vs oral sesame seed oil formulation of parent ([2]; suppository vs oral 10 mg, monkeys): extraordinary superiority | Mean delta-9-tetrahydrocannabinol level in plasma ([2]; suppository, 0.0 hr): 0.0 ng/mL | Mean delta-9-tetrahydrocannabinol level in plasma ([2]; suppository, 0.1 hr): 0.0 ng/mL | blood levels, free ester vs N-methyl glucamine salt suppository [5]: virtually equivalent
